# Data reported in patent publication US6271238A, “Acetamide derivatives and protease inhibitors” (Nippon Kayaku Kabushiki Kaisha, priority 1996, dated 2001).
# Experiments:
# Assay type in all cases: biochemical
# rat chymase = molecular target: T1, rat chymase (Rattus norvegicus, UniProt P09650); experiment: Inhibitory activity on rat chymase (synthetic substrate); details: substrate succinyl leucyl leucyl valyl tyrosyl methylcoumarylamide; pH 8.0, 37° C., 15 min; read-out: Rat Chymase (IC50: nM), 50% inhibitory concentration
# T1 construct: 50 g rat tongue was finely divided by scissors and a scalpel; from tissue; host or cells: rat tongue
# T1 sequence (P09650 21-260): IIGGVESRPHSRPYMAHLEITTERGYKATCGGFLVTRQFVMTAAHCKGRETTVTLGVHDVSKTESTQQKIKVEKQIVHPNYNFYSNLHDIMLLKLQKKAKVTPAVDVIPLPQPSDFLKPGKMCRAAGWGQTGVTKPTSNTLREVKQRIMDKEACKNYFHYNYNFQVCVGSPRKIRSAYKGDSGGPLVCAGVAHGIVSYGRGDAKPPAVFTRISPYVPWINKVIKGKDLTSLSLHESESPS
# Procedure: In the present invention, chymase was purified by the methods described in these literatures, and the present compounds were examined for inhibitory activity on chymase, inhibitory action on activation of mast cells and eosinophils, and pharmacological action in animals. Hereinafter, specific methods are described. […] 50 g rat tongue was finely divided by scissors and a scalpel, suspended in 0.1 M phosphate buffer (pH 8.0), and disrupted by a Polytron homogenizer for 5 minutes to prepare a crude chymase enzyme solution. […] The supernatant was applied to an octyl Sepharose 4B column (40×100 mm) previously equilibrated with 0.1 M phosphate buffer (pH 8.0) containing 2 M sodium chloride and 5% ammonium sulfate, and the protein was eluted with a linear concentration gradient of from 2 M to 0 M sodium chloride. […] (D) Measurement of inhibitory activity on chymase (a) Measurement using the synthetic substrate The synthetic chymase substrate was used for measurement of the inhibitory activity on the rat chymase as a subtrate, and the fluorescence of formed aminomethylcoumarin after reaction was measured by a spectrophotometer. […] The test was conducted several times. Chymase was prepared for each test in the manner described above. The compounds examined were compounds prepared in the above-described examples. […] Succinyl leucyl leucyl valyl tyrosyl methylcoumarylamide (for rat […] angiotensin I (for human and dog chymase)
# human chymase = molecular target: T2, human chymase (Homo sapiens, UniProt P23946); experiment: Inhibitory activity on human chymase (angiotensin I as substrate); details: for IC50: substrate angiotensin I, pH 8.0, 37° C., 60 min, read-out: Human Chymase (IC50: nM), 50% inhibitory concentration
# T2 construct: 60 g human tonsils were finely divided by scissors and a scalpel; from tissue; host or cells: human tonsils
# T2 sequence (P23946 22-247): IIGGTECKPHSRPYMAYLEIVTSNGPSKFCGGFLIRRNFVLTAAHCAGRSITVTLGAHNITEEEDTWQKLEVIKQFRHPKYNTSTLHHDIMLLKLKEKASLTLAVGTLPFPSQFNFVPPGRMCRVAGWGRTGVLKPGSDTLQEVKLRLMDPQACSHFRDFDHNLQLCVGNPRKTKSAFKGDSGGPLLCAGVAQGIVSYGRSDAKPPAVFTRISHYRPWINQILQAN
# Excerpt: It is known that chymase is present in tissues of various animals, and its isolation and purification methods are described in Anal. Biochem., 137, 449 (1984) and FEBS Letters, 323, 119 (1993). In the present invention, chymase was purified by the methods described in these literatures, and the present compounds were examined for inhibitory activity on chymase, inhibitory action on activation of mast cells and eosinophils, and pharmacological action in animals. Hereinafter, specific methods are described. 50 g rat tongue was finely divided by scissors and a scalpel, suspended in 0.1 M phosphate buffer (pH 8.0), and disrupted by a Polytron homogenizer for 5 minutes to prepare a crude chymase enzyme solution. […] The supernatant was applied to an octyl Sepharose 4B column (40×100 mm) previously equilibrated with 0.1 M phosphate buffer (pH 8.0) containing 2 M sodium chloride and 5% ammonium sulfate, and the protein was eluted with a linear concentration gradient of from 2 M to 0 M sodium chloride. An active fraction decomposing succinyl leucyl leucyl valyl tyrosyl methylcumarylamide (hereinafter referred to as the synthetic chymase substrate, a product of Peptide Kenkyusho) was recovered and concentrated and this product was used as a purified rat chymase in the following activity measurement. (B) Preparation of human chymase 60 g human tonsils were finely divided by scissors and a scalpel, suspended in 0.1 M phosphate buffer (pH 8.0), and A-disrupted by a Polytron homogenizer for 5 minutes to prepare a crude chymase enzyme solution. It was centrifuged at 22000×g for 30 minutes, and the precipitates were used as a chymase enzyme fraction. […] The supernatant was concentrated by an ultrafiltration membrane, then applied to […] column (6.0×300 mm), and eluted with 0.1 M phosphate buffer (pH 8.0). An active fraction decomposing the synthetic chymase substrate was recovered and concentrated and this product was used as a purified human chymase in the following activity measurement. (D) Measurement of inhibitory activity on chymase (b) Measurement using angiotensin I as substrate The inhibitory activity on the human chymase and dog chymase was measured using angiotensin I (Peptide Kenkyusho) as substrate besides the above synthetic substrate. […] After the end of the reaction, produced angiotensin II was immediately measured by high performance liquid chromatography to determine the activity of the chymase to calculate 50% inhibitory concentration (IC50: nM). The test was conducted several times. Chymase was prepared for each test in the manner described above. The compounds examined were compounds prepared in the above-described examples. […] 50% Inhibitory concentration (IC50: nM) of each compound toward rat chymase, dog […] human […] Substrate: Succinyl leucyl leucyl valyl tyrosyl methylcoumarylamide (for rat […] angiotensin I (for human and dog chymase)
# dog chymase = molecular target: T3, dog chymase (Canis lupus familiaris, UniProt P21842); experiment: Inhibitory activity on dog chymase (angiotensin I as substrate); details: pH 8.0, 37° C., 60 min, read-out: Dog Chymase (IC50: nM), 50% inhibitory concentration
# T3 construct: 60 g dog heart was finely divided by scissors and a scalpel; from tissue; host or cells: dog heart
# T3 sequence (P21842 22-249): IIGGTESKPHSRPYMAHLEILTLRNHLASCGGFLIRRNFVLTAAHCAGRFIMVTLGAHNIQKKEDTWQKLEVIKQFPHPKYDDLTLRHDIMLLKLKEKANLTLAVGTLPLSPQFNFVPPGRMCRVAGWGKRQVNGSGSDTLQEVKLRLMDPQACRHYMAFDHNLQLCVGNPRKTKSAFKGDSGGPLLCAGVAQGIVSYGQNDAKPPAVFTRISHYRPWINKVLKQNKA
# Excerpt: It is known that chymase is present in tissues of various animals, and its isolation and purification methods are described in Anal. Biochem., 137, 449 (1984) and FEBS Letters, 323, 119 (1993). In the present invention, chymase was purified by the methods described in these literatures, and the present compounds were examined for inhibitory activity on chymase, inhibitory action on activation of mast cells and eosinophils, and pharmacological action in animals. Hereinafter, specific methods are described. (c) Preparation of dog chymase 60 g dog heart was finely divided by scissors and a scalpel, suspended in 0.1 M phosphate buffer (pH 8.0), and disrupted by a Polytron homogenizer for 5 minutes to prepare a crude chymase enzyme solution. It was centrifuged at 22000×g for 15 minutes, and the precipitates were used as a chymase enzyme fraction. […] An active fraction decomposing the synthetic chymase substrate was recovered and concentrated and this product was used as a purified dog chymase in the following activity measurement. (D) Measurement of inhibitory activity on chymase (b) Measurement using angiotensin I as substrate The inhibitory activity on the human chymase and dog chymase was measured using angiotensin I (Peptide Kenkyusho) as substrate besides the above synthetic substrate. […] After the end of the reaction, produced angiotensin II was immediately measured by high performance liquid chromatography to determine the activity of the chymase to calculate 50% inhibitory concentration (IC50: nM). The test was conducted several times. Chymase was prepared for each test in the manner described above. The compounds examined were compounds prepared in the above-described examples. […] 50% Inhibitory concentration (IC50: nM) of each compound toward rat chymase, dog […] human […] Substrate: Succinyl leucyl leucyl valyl tyrosyl methylcoumarylamide (for rat […] angiotensin I (for human and dog chymase)
# other human proteases = experiment: Inhibitory activity on other human proteases (summary)
# Procedure: (E) Measurement of inhibitory activity on proteases other than chymase
# The inhibitory activity of the present compounds on human elastase, human cathepsin G, human urokinase, human thrombin, human plasmin, and human factor Xa was determined using their corresponding synthetic substrates in the same manner as for chymase. All the above proteases were those commercially available from Boehringer Mannheim or purified by a combination of known methods. The synthetic substrates were those produced by Peptide Renkyusho. The synthetic substrates for the respective proteases are as follows.
# The test was conducted several times. Chymase was prepared for each test in the manner described above. The compounds examined were compounds prepared in the above-described examples.
Compound,IC50 (rat chymase),IC50 (human chymase),IC50 (dog chymase),"inhibitory activity on human chymase, in words (human chymase)","inhibitory activity on other human proteases, in words (other human proteases)"
"CC(=O)C(=O)C(Cc1ccccc1)NC(=O)Cn1c(-c2ccccc2)ncc(NC(=O)OC(C)(C)C)c1=O (centres unmarked) [Compound 37, 2-(5-t-Butyloxycarbonylamino-6-oxo-1,6-dihydro-2-phenyl-1-pyrimidinyl)-N-(2,3-dioxo-1-phenylmethyl) butylacetamide]",2900 nM,673 nM,22 nM,–,–
CC(=O)C(=O)C(Cc1ccc(F)cc1)NC(=O)Cn1c(-c2ccccc2)ncc(NC(=O)OC(C)(C)C)c1=O (centres unmarked) [Compound 55],920 nM,> 10000 nM,98 nM,–,–
CC(=O)Nc1cnc(-c2ccccc2)n(CC(=O)NC(Cc2ccccc2)C(=O)C(=O)CCCn2ccccc2=O)c1=O (centres unmarked) [Compound 76],190 nM,122 nM,0.19 nM,–,–
CC(=O)C(=O)C(Cc1cccc(Cl)c1)NC(=O)Cn1c(-c2ccccc2)ncc(N)c1=O (centres unmarked) [Compound 62],200 nM,131 nM,5 nM,–,–
Nc1cnc(-c2ccccc2)n(CC(=O)NC(Cc2ccccc2)C(=O)C(=O)c2ccccc2)c1=O (centres unmarked) [Compound 46],2800 nM,1590 nM,494 nM,–,–
CC(C)(C)OC(=O)Nc1cnc(-c2ccccc2)n(CC(=O)NC(Cc2ccccc2)C(=O)C(=O)CCc2ccccc2)c1=O (centres unmarked) [Compound 41],740 nM,148 nM,13 nM,–,–
O=C(Cn1c(-c2ccccc2)ncc(NC(=O)C2CCOC2)c1=O)NC(Cc1ccccc1)C(=O)C(=O)CCCc1ccccc1 (centres unmarked) [Compound 81],150 nM,114 nM,0.29 nM,–,–
Nc1cnc(-c2ccccc2)n(CC(=O)NC(Cc2ccccc2)C(=O)C(=O)CCCC(=O)O)c1=O (centres unmarked) [Compound 48],> 10000 nM,314 nM,33 nM,–,–
"O=C(Cn1c(-c2ccccc2)ncc(NC(=O)OCc2ccncc2)c1=O)NC(Cc1ccccc1)C(=O)C(=O)CCCOc1ccccn1 (centres unmarked) [Compound 78, 2-{6-oxo-2-phenyl-5-(4-pyridylmethyloxycarbonylamino)-1,6-dihydropyrimidine-1-yl}-N-{2,3-dioxo-1-phenylmethyl-6-(2-pyridyloxy)}hexylacetamide]",42 nM,1.6 nM,0.32 nM,strong inhibitory activity on human chymase,no inhibitory activity on other human proteases
"O=C(Cn1c(-c2ccccc2)ncc(NS(=O)(=O)Cc2ccccc2)c1=O)NC(Cc1ccccc1)C(=O)C(=O)CCCOc1ccccn1 (centres unmarked) [Compound 77, 2-(5-Benzylsulfonylamino-6-oxo-2-phenyl-1,6-dihydropyrimidine-1-yl)-N-{2,3-dioxo-1-phenylmethyl-6-(2-pyridyloxy)}hexylacetamide]",48 nM,7 nM,1.4 nM,strong inhibitory activity on human chymase,no inhibitory activity on other human proteases
CC(=O)C(=O)C(Cc1cccc(C)c1)NC(=O)Cn1c(-c2ccccc2)ncc(N)c1=O (centres unmarked) [Compound 60],450 nM,101 nM,9.1 nM,–,–
Nc1cnc(-c2ccccc2)n(CC(=O)NC(Cc2ccccc2)C(=O)C(=O)CCCOc2ccccn2)c1=O (centres unmarked) [Compound 75],220 nM,2.6 nM,1 nM,strong inhibitory activity on human chymase,no inhibitory activity on other human proteases
CC(=O)C(=O)C(Cc1ccc(Cl)cc1)NC(=O)Cn1c(-c2ccccc2)ncc(N)c1=O (centres unmarked) [Compound 58],340 nM,2850 nM,71 nM,–,–
CC(=O)C(=O)C(Cc1ccc(O)c(F)c1)NC(=O)Cn1c(-c2ccccc2)ncc(N)c1=O (centres unmarked) [Compound 50],690 nM,73 nM,19 nM,strong inhibitory activity on human chymase,no inhibitory activity on other human proteases
